Experimental findings from ChEMBL document CHEMBL2010744, “Pyridyl aminothiazoles as potent inhibitors of Chk1 with slow dissociation rates” (Bioorg Med Chem Lett, 2012) are described below.

pIC50: −log10 of the molar value. The source made the active and inactive calls. No cut-off for these calls is given here.

Assay [1] has as its target T1, Serine/threonine-protein kinase Chk1 (Homo sapiens, UniProt O14757).
T1 sequence (O14757 whole entry): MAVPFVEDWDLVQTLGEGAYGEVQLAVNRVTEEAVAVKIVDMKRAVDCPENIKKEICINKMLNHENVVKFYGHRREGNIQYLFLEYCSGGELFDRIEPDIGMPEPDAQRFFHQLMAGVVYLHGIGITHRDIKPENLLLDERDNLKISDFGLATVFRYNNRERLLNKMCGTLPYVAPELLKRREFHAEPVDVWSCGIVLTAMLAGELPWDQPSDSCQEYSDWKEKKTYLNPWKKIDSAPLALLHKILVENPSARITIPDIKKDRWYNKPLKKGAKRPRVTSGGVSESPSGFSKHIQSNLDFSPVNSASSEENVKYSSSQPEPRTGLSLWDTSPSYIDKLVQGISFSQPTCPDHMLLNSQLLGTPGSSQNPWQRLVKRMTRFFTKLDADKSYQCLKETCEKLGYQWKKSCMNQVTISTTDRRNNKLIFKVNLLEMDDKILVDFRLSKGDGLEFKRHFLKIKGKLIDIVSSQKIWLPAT
The assay can be described thus: Competitive inhibition of Chk1 in presence of higher ATP levels.

In assay [2] the target is T2, Serine/threonine-protein kinase Chk1 (Homo sapiens) (UniProt O14757).
T2 sequence (whole entry): T1 sequence (O14757 whole entry)
The assay can be described thus: Inhibition of immobilized Chk1 at 11 nM incubated for 30 mins followed by 24 hrs washout by HTRF assay.

The target of assay [3] is T2, Serine/threonine-protein kinase Chk1 (Homo sapiens). The assay can be described thus: Competitive inhibition of immobilized Chk1 at 11 nM incubated for 30 mins followed by 24 hrs washout by HTRF assay in presence of 100 uM ATP. (In TR-FRET formats the signal depends on donor and acceptor labels being close together.)

For `Cc1ccc(-c2cnc(Nc3cc(N4CCNCC4)ccn3)s2)cn1`, the pIC50 (commonly −log10 of the IC50, conventionally taken in molar units) in assay [1] is 7.43.

`CNCCNC(=O)c1cncc(-c2cnc(Nc3cc(N4CCOCC4)ccn3)s2)c1`: the negative-log IC50 (pIC50) in assay [1] was 9.00. Take `c1cc(N2CCOCC2)cc(Nc2ncc(-c3cncc(-c4cn[nH]c4)c3)s2)n1`: the negative logarithm of the IC50 (pIC50) in assay [1] was 7.46. Same read-out and setting: the same measure for `c1cc(N2CCNCC2)cc(Nc2ncc(-c3cncc(-c4cn[nH]c4)c3)s2)n1`: 8.10; for `c1ncc(-c2cncc(-c3cnc(Nc4cc(N5CCOCC5)ccn4)s3)c2)cn1`: 7.43. On the same count and under the same terms, the same measure for `OCC1CN(c2ccnc(Nc3ncc(-c4cccnc4)s3)c2)CCO1` (stereo not drawn): 7.31. Same read-out and setting: the same measure for `OCCNc1ccnc(Nc2ncc(-c3cncnc3)s2)c1`: 7.05; for `Cc1ncc(-c2cnc(Nc3cccc(N4CCNCC4)n3)s2)cn1`: 6.92. `COc1ncc(-c2cncc(-c3cnc(Nc4cc(N5CCOCC5)ccn4)s3)c2)cn1`: the negative logarithm of the IC50 (pIC50) in assay [1] is 7.22. Same read-out and setting: in the case of `OCC#Cc1cncc(-c2cnc(Nc3cc(N4CCOCC4)ccn3)s2)c1` it was 8.22; in that of `NCCNC(=O)c1cncc(-c2cnc(Nc3cc(CN4CCOCC4)ccn3)s2)c1`, 9.40; in that of `Brc1cccc(-c2cnc(Nc3cc(N4CCNCC4)ccn3)s2)c1`, less than 5.98. `NCCCc1cncc(-c2cnc(Nc3cc(N4CCOCC4)ccn3)s2)c1`: the pIC50 in assay [1] was 7.92. As to `Cc1ncc(-c2cnc(Nc3cccc(NCCCN)n3)s2)cn1`, the negative logarithm of the IC50 (pIC50) in assay [1] was 7.54. As to `Cc1ncc(-c2cnc(Nc3cc(N4CCNCC4)ccn3)s2)cn1`, in assay [1], the pIC50 was 7.54.

In the case of `c1cncc(-c2cncc(-c3cnc(Nc4cc(N5CCOCC5)ccn4)s3)c2)c1`, the pIC50 in assay [1] was 7.72. On the same count and under the same terms, in the case of `Cc1ccc(-c2cnc(Nc3cc(N4CCN(S(C)(=O)=O)CC4)ccn3)s2)cn1` it was 6.95. The same measure, in the same setting: the same measure for `c1ccc(-c2cnc(Nc3cc(N4CCNCC4)ccn3)s2)cc1`: 6.28; for `NCCNC(=O)c1cncc(-c2cnc(Nc3cc(N4CCNCC4)ccn3)s2)c1`: 10.30; for `CS(=O)(=O)N1CCN(c2ccnc(Nc3ncc(-c4cncnc4)s3)c2)CC1`: 7.33.

Take `NC/C=C/c1cncc(-c2cnc(Nc3cc(N4CCOCC4)ccn3)s2)c1`: in assay [1], the pIC50 was 6.49.

Consider `CC(=O)N1CCN(c2ccnc(Nc3ncc(-c4cncc(C(=O)NCCN)c4)s3)c2)CC1`, for which the pIC50 in assay [1] was 10.52. For `NCCNC(=O)c1cncc(-c2cnc(Nc3cc(N4CCC(F)(F)CC4)ccn3)s2)c1`, the pIC50 in assay [1] is 10.30. The inhibition entry in assay [2] and in assay [3] was “Active” throughout. For `Cc1ncc(-c2cnc(Nc3cc(N4CCOCC4)ccn3)s2)cn1`, the pIC50 in assay [1] was 7.22. Same read-out and setting: in the case of `CS(=O)(=O)N1CCN(c2ccnc(Nc3ncc(-c4cncc(C(=O)NCCN)c4)s3)c2)CC1` it was 10.52. On the same count and under the same terms, the same measure for `CC(=O)N1CCN(c2ccnc(Nc3ncc(-c4ccc(C)nc4)s3)c2)CC1`: 6.69. The same measure, in the same setting: the same measure for `N#Cc1cncc(-c2cnc(Nc3cc(N4CCOCC4)ccn3)s2)c1`: 6.36. In the case of `COc1ncccc1-c1cncc(-c2cnc(Nc3cc(N4CCOCC4)ccn3)s2)c1`, in assay [1], the negative logarithm of the IC50 (pIC50) was 6.46. Same read-out and setting: in the case of `NCCCNC(=O)c1cncc(-c2cnc(Nc3cc(N4CCOCC4)ccn3)s2)c1` it was 8.85; in that of `N#Cc1cncc(-c2cnc(Nc3cc(N4CCNCC4)ccn3)s2)c1`, 7.46; in that of `NCCC(=O)c1cncc(-c2cnc(Nc3cc(N4CCOCC4)ccn3)s2)c1`, 9.57.
